Measurements as given in patent US8034931B2, “Process for producing substituted aminoquinazolinone derivative, intermediate therefor, and pest control agent” (Nihon Nohyaku Co., Ltd., priority 2003, dated 2011).

Key:
Type in all cases: in vivo
[1] = tested on: Green Peach Aphid (Myzus persicae); experiment: Insecticidal effect on green peach aphid, foliar spray on potted Chinese cabbage (Test Example 1); conditions: 500 ppm liquid chemical, sprayed on Chinese cabbage stalks and leaves, six days after the spraying
Source text: Insecticidal Effect on Green Peach Aphid (Myzus persicae)
A Chinese cabbage plant was planted in each of plastic pots with a diameter of 8 cm and a height of 8 cm, and green peach aphids were propagated on the plant, after which the parasites in each pot were counted. A preparation containing each compound of the present invention listed in Tables 2 to 4 or each comparative compound as an active ingredient was dispersed in and diluted with water to obtain a 500 ppm liquid chemical. The stalks and leaves of the potted Chinese cabbage plants were sprayed with the liquid chemical and air-dried, and then the pots were stored in a greenhouse. Six days after the spraying, green peach aphids parasitic on each Chinese cabbage plant were counted and the control efficacy was calculated by the following equation, whereby the insecticidal effect was judged according to the criterion shown below. Control efficacy=100−{(T×Ca)/(Ta×C)}×100 • Ta: number of parasites before spraying in treated group, • T: number of parasites after spraying in treated group, • Ca: number of parasites before spraying in untreated group, • C: number of parasites after spraying in untreated group.

[2] = tested on: Greenhouse Whitefly (Trialeuroddes vaporariorum); experiment: Insecticidal effect on greenhouse whitefly, sprayed tomato leaf (Test Examples 2 and 4); conditions: for Test Example 4: controlling effect at a low dosage (corrected mortality): 3 ppm liquid chemical, otherwise same as Test Example 2; for Test Example 2: insecticidal effect (corrected mortality): 100 ppm liquid chemical, sprayed tomato leaf, 20 adult whiteflies, four days after the inoculation
Source text: Insecticidal Effect on Greenhouse Whitefly (Trialeuroddes vaporariorum)
A preparation containing each compound of the present invention listed in Tables 2 to 4 or each comparative compound as an active ingredient was dispersed in and diluted with water to obtain a 100 ppm liquid chemical. A tomato leaf set in a 20-ml vial with its stalk immersed in water was sprayed with the liquid chemical with a spray gun on a turntable. After air-dryness, the treated leaf was placed in a glass cylinder and inoculated with 20 adult greenhouse whiteflies. After the treatment, the glass cylinder was placed in a greenhouse. Four days after the inoculation, the living insects were counted. The corrected mortality was calculated according to the following equation and the insecticidal effect was judged according to the criterion shown below.
[formula] Criterion for Judgment:
Insecticidal Effect on Greenhouse (Trialeuroddes vaporariorum) at a Low Dosage
The same test as in Test Example 2 was carried out except for changing the concentration of the liquid chemical to 3 ppm.

[3] = tested on: White Peach Scale (Pseudaulacaspis pentagona); experiment: Insecticidal effect on white peach scale, sprayed potato tuber (Test Examples 3 and 5); conditions: 100 ppm liquid chemical, potato tuber with first-instar larvae, fourteen days after the treatment
Source text: Insecticidal Effect on White Peach Scale (Pseudaulacaspis pentagona)
A preparation containing each compound of the present invention listed in Tables 2 to 4 or each comparative compound as an active ingredient was dispersed in and diluted with water to obtain a 100 ppm liquid chemical. A potato tuber with first-instar larvae of white peach scale as parasites was sprayed with the liquid chemical with a spray gun. Fourteen days after the treatment, the living insects were counted. In the same manner as in Test Example 2, the corrected mortality was calculated and the insecticidal effect was judged.
Insecticidal Effect on White Peach Scale (Pseudaulacaspis pentagona) at a Low Dosage
The same test as in Test Example 3 was carried out except for changing the concentration of the liquid chemical to 30 ppm.

SMILES | Test Example 1: insecticidal effect (control efficacy) [1] | Test Example 4: controlling effect at a low dosage (corrected mortality) [2] | Test Example 2: insecticidal effect (corrected mortality) [2] | Test Example 3: insecticidal effect (corrected mortality) [3]
CC(=O)N1C(=O)N(N=Cc2cccnc2)Cc2ccccc21 [A, 1-acetyl-3-(3-pyridylmethylideneamino)-3,4-dihydro-2(1H)-quinazolinone, reference compound] | A (Control efficacy 100%) | C (Corrected mortality 89-80%) | A (Corrected mortality 100%) | B (Corrected mortality 99-90%)
CC(=O)N1C(=O)N(NCc2cccnc2)Cc2cc(Br)ccc21 [B, 1-acetyl-3-(3-pyridylmethylamino)-3,4-dihydro-6-bromo-2(1H)-quinazolinone, reference compound] | A (Control efficacy 100%) | D (Corrected mortality 79-50%) | C (Corrected mortality 89-80%) | C (Corrected mortality 89-80%)
CCN1C(=O)N(N=Cc2cccnc2)Cc2cc(C(F)(C(F)(F)F)C(F)(F)F)ccc21 [compound 2] | A (Control efficacy 100%) |  | A (Corrected mortality 100%) | A (Corrected mortality 100%)
COCN1C(=O)N(N=Cc2cccnc2)Cc2cc(C(F)(C(F)(F)F)C(F)(F)F)ccc21 [compound 4] | A (Control efficacy 100%) |  | A (Corrected mortality 100%) | A (Corrected mortality 100%)
CCOCN1C(=O)N(N=Cc2cccnc2)Cc2cc(C(F)(C(F)(F)F)C(F)(F)F)ccc21 [compound 5] | A (Control efficacy 100%) |  | A (Corrected mortality 100%) | A (Corrected mortality 100%)
N#CCN1C(=O)N(N=Cc2cccnc2)Cc2cc(C(F)(C(F)(F)F)C(F)(F)F)ccc21 [compound 6] | A (Control efficacy 100%) |  | A (Corrected mortality 100%) | A (Corrected mortality 100%)
O=CN1C(=O)N(N=Cc2cccnc2)Cc2cc(C(F)(C(F)(F)F)C(F)(F)F)ccc21 [compound 7] | A (Control efficacy 100%) |  | A (Corrected mortality 100%) | A (Corrected mortality 100%)
CCC(=O)N1C(=O)N(N=Cc2cccnc2)Cc2cc(C(F)(C(F)(F)F)C(F)(F)F)ccc21 [compound 9] | A (Control efficacy 100%) |  | A (Corrected mortality 100%) | A (Corrected mortality 100%)
CCCC(=O)N1C(=O)N(N=Cc2cccnc2)Cc2cc(C(F)(C(F)(F)F)C(F)(F)F)ccc21 [compound 10] | A (Control efficacy 100%) |  | A (Corrected mortality 100%) | A (Corrected mortality 100%)
CC(C)C(=O)N1C(=O)N(N=Cc2cccnc2)Cc2cc(C(F)(C(F)(F)F)C(F)(F)F)ccc21 [compound 11] | A (Control efficacy 100%) |  | A (Corrected mortality 100%) | A (Corrected mortality 100%)
CCCCC(=O)N1C(=O)N(N=Cc2cccnc2)Cc2cc(C(F)(C(F)(F)F)C(F)(F)F)ccc21 [compound 12] | A (Control efficacy 100%) |  | A (Corrected mortality 100%) | A (Corrected mortality 100%)
CCC(C)C(=O)N1C(=O)N(N=Cc2cccnc2)Cc2cc(C(F)(C(F)(F)F)C(F)(F)F)ccc21 (centres unmarked) [compound 13] | A (Control efficacy 100%) |  | A (Corrected mortality 100%) | A (Corrected mortality 100%)
O=C(C1CC1)N1C(=O)N(N=Cc2cccnc2)Cc2cc(C(F)(C(F)(F)F)C(F)(F)F)ccc21 [compound 14] | A (Control efficacy 100%) |  | A (Corrected mortality 100%) | A (Corrected mortality 100%)
COCC(=O)N1C(=O)N(N=Cc2cccnc2)Cc2cc(C(F)(C(F)(F)F)C(F)(F)F)ccc21 [compound 15] | A (Control efficacy 100%) |  | A (Corrected mortality 100%) | A (Corrected mortality 100%)
COC(=O)N1C(=O)N(N=Cc2cccnc2)Cc2cc(C(F)(C(F)(F)F)C(F)(F)F)ccc21 [compound 16] | A (Control efficacy 100%) |  | A (Corrected mortality 100%) | A (Corrected mortality 100%)
CCOC(=O)N1C(=O)N(N=Cc2cccnc2)Cc2cc(C(F)(C(F)(F)F)C(F)(F)F)ccc21 [compound 17] | A (Control efficacy 100%) |  | A (Corrected mortality 100%) | A (Corrected mortality 100%)
CCCOC(=O)N1C(=O)N(N=Cc2cccnc2)Cc2cc(C(F)(C(F)(F)F)C(F)(F)F)ccc21 [compound 18] | A (Control efficacy 100%) |  | A (Corrected mortality 100%) | A (Corrected mortality 100%)
CC(C)OC(=O)N1C(=O)N(N=Cc2cccnc2)Cc2cc(C(F)(C(F)(F)F)C(F)(F)F)ccc21 [compound 19] | A (Control efficacy 100%) |  | A (Corrected mortality 100%) | A (Corrected mortality 100%)
CCCCOC(=O)N1C(=O)N(N=Cc2cccnc2)Cc2cc(C(F)(C(F)(F)F)C(F)(F)F)ccc21 [compound 20] | A (Control efficacy 100%) |  | A (Corrected mortality 100%) | A (Corrected mortality 100%)
CCC(C)OC(=O)N1C(=O)N(N=Cc2cccnc2)Cc2cc(C(F)(C(F)(F)F)C(F)(F)F)ccc21 (centres unmarked) [compound 21] | A (Control efficacy 100%) |  | A (Corrected mortality 100%) | A (Corrected mortality 100%)
CS(=O)(=O)N1C(=O)N(N=Cc2cccnc2)Cc2cc(C(F)(C(F)(F)F)C(F)(F)F)ccc21 [compound 22] | A (Control efficacy 100%) |  | A (Corrected mortality 100%) | A (Corrected mortality 100%)
CCS(=O)(=O)N1C(=O)N(N=Cc2cccnc2)Cc2cc(C(F)(C(F)(F)F)C(F)(F)F)ccc21 [compound 23] | A (Control efficacy 100%) |  | A (Corrected mortality 100%) | A (Corrected mortality 100%)
O=C(c1ccccc1)N1C(=O)N(N=Cc2cccnc2)Cc2cc(C(F)(C(F)(F)F)C(F)(F)F)ccc21 [compound 24] | A (Control efficacy 100%) |  | A (Corrected mortality 100%) | A (Corrected mortality 100%)
O=C(c1ccccc1C(F)(F)F)N1C(=O)N(N=Cc2cccnc2)Cc2cc(C(F)(C(F)(F)F)C(F)(F)F)ccc21 [compound 25] | A (Control efficacy 100%) |  | A (Corrected mortality 100%) | A (Corrected mortality 100%)
